{"source": "patent US20080235828A1", "about": "(University of Manitoba, priority 2004, published 2008)", "key": {"[1]": {"biological_target": "ABAP1 (Hordeum vulgare, UniProt Q9LLX3)", "sequence (Q9LLX3 entry or part of it)": "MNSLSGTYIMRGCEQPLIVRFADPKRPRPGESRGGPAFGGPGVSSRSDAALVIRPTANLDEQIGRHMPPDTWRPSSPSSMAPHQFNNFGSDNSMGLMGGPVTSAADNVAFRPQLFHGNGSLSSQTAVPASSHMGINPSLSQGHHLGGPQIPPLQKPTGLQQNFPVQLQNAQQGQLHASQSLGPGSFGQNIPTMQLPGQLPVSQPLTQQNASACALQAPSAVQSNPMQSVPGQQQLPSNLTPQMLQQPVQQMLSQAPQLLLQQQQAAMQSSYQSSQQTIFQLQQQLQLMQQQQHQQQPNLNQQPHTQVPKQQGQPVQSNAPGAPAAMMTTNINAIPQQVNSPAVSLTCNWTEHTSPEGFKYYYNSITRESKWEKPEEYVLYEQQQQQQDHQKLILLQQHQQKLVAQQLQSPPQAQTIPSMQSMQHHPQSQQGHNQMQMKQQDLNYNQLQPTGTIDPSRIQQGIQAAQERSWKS", "test": "ABA binding assay with purified recombinant ABAP1", "parameters": "species or system barley", "protocol": "Other additions or changes to the incubation system are discussed in the figure legends. All binding assays were carried out at a final volume of 150 μL at 4° C. for 1 hour. The mixture was then rapidly filtered through a nitrocellulose membrane, washed with 5 mL, of cold 0.5× binding buffer by rapid filtration, dried in air and counted in a scintillation counter (Wallac 1414 WinSpectral v1.40). […] The DCC binding mixture was maintained for 15 minutes on ice before centrifugation to precipitate DCC. The resulted supernatant was then counted in a scintillation counter to determine the binding activity. […] Heat denatured ABAP1 protein was used to determine the protein nature of the ABAP1 and BSA was used as a control. All binding studies were carried out using three different protein purifications with triplicate assays for each purification. […] Binding was represented as the number of moles of ^3H^+-ABA per mole of ABAP1 protein."}, "[2]": {"system": "FCA-RRM", "test": "Preliminary ABA-binding assays using crude lysate from FCA-RRM", "parameters": "species or system Arabidopsis", "protocol": "All binding assays were carried out at a final volume of 200 μL at 4° C. for 45 minutes. The mixture was then rapidly filtered through a nitrocellulose membrane, washed with 0.5× binding buffer, air dried and counted in a scintillation counter (Wallac 1414 WinSpectral v1.40). Heat denatured FCA protein was used to used determine the protein nature of the FCA and BSA was used as a control. […] […] Specific binding was calculated by taking the difference for assays with only ^3H^+-ABA (total binding) and assays that also contained 5 μM (±)-ABA added at the same time as ^3H^+-ABA (non-specific binding). Binding was represented as the number of moles of ^3H^+-ABA per mole of FCA protein."}, "[3]": {"system": "GST:FCA-WW-FY", "test": "ABA binding to and dissociation of pre-formed FCA-FY complex", "parameters": "species or system Arabidopsis", "protocol": "The GST:FCA-WW-FY interaction mixture was incubated for 90 minutes before 1 μM ^3H^+-ABA was added and the mixture pelletted, washed, and the dual activity for [^35S]-met-FY and ^3H^+-ABA were counted as described above."}, "[4]": {"biological_target": "T1, FCA protein (Arabidopsis thaliana, UniProt O04425)", "T1 sequence (O04425 1-747 isoform O04425-1)": "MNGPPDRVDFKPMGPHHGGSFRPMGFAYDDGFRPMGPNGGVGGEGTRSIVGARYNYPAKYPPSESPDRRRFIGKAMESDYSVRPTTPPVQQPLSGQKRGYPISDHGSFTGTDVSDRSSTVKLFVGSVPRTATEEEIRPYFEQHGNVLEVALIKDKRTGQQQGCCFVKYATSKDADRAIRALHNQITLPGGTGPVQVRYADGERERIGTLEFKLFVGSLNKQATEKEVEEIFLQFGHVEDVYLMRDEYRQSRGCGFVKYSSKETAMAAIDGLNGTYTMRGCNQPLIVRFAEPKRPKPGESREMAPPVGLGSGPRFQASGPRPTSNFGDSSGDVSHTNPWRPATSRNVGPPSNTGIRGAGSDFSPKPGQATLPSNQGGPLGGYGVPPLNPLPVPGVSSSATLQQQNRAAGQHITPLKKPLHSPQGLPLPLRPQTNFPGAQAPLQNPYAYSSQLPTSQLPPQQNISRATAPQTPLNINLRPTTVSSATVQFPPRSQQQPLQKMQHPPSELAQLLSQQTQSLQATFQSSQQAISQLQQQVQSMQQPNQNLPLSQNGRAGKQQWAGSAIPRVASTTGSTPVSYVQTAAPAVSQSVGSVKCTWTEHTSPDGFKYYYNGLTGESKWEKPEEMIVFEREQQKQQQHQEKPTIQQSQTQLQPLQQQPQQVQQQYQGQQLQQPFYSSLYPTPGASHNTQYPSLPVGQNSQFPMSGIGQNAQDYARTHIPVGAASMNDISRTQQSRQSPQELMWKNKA", "test": "ABA binding assay with purified recombinant FCA", "parameters": "other: in the absence of FY, at 15 min; other: in the absence of FY, at 45 min; fused on or other part: GST fused on", "conditions": "in the absence of FY", "protocol": "(§1) […] The mixture was then rapidly filtered through a nitrocellulose membrane, washed with 0.5× binding buffer, air dried and counted in a scintillation counter (Wallac 1414 WinSpectral v1.40). Heat denatured FCA protein was used to used determine the protein nature of the FCA and BSA was used as a control. All binding studies were carried out using three different GST affinity chromatography protein purifications with triplicate assays for each purification. […] Specific binding was calculated by taking the difference for assays with only ^3H^+-ABA (total binding) and assays that also contained 5 μM (±)-ABA added at the same time as ^3H^+-ABA (non-specific binding). Binding was represented as the number of moles of ^3H^+-ABA per mole of FCA protein."}, "[5]": {"biological_target": "T1, FCA protein", "test": "ABA binding assay with purified recombinant FCA", "parameters": "Kd; other: analog added in higher concentrations than 3H+-ABA (20-5000 nM); other: Scatchard analysis, r^2=0.88; other: in presence of 5 μM unlabelled (+)-ABA; pH range of maximum; fused on or other part: GST fused on for purification", "protocol": "as §1"}}, "data": [{"substance": "abscisic acid [ABA]", "values": [{"measurement": "pH of maximum binding activity", "setting": "[1]; 3H+-ABA binding at varying pH", "value": 7.3}, {"measurement": "maximum specific binding", "setting": "[1]; Scatchard plot analysis, r^2=0.94", "value": 0.8, "unit": "mol ABA mold protein"}, {"measurement": "ratio of ABA bound to ABAP1", "setting": "[1]; Scatchard plot, r^2=0.94", "value": "approximately 0.8 mol ABA mol^−1 protein"}, {"measurement": "time maximum binding activity remained stable", "setting": "[1]; additional time after reaching maximum binding", "value": "≥ 3", "unit": "h"}, {"measurement": "maximum binding activity (total binding)", "setting": "[1]; association kinetics, total binding", "value": "≈ 0.7 mol ABA mol^−1 protein"}, {"measurement": "non-specific binding", "setting": "[1]; in presence of 5 μM unlabelled ABA", "value": "less than 10 % of the total binding"}, {"measurement": "3H+-ABA binding", "setting": "[2]", "value": "did not show any"}, {"measurement": "disruption of FCA-FY complex (displacement of FY)", "setting": "[3]", "value": "capable of disrupting the FCA-FY complex"}, {"measurement": "ABA binding activity of pre-formed FCA-FY complex", "setting": "[3]; 1 μM 3H+-ABA added after 90 min FCA-FY incubation", "value": "initially low but significantly increased after 45 minutes"}, {"measurement": "saturation of FCA 3H-(+)-ABA binding activity", "setting": "[4]; at 15 min", "value": "approximately 50%"}, {"measurement": "saturation of FCA 3H-(+)-ABA binding activity", "setting": "[4]; at 45 min", "value": "approximately 95%"}, {"measurement": "binding corresponding to 100% binding activity", "setting": "[5]; 50 nM 3H-(+)-ABA, FIG. 16", "value": "approximately 0.52 mol ABA mol^−1 protein"}, {"measurement": "maximum binding", "setting": "[5]; Scatchard analysis, r^2=0.88", "value": 0.72, "unit": "mol mol^−1 protein"}, {"measurement": "ratio of ABA bound to FCA", "setting": "[5]; Scatchard plot", "value": "approximately 0.72 mol ABA mol^−1 protein"}, {"measurement": "non-specific binding", "setting": "[5]; in presence of 5 μM unlabelled (+)-ABA", "value": "less than 11 % of the total binding"}]}]}
